We go through 6 compounds from ChEMBL document CHEMBL3046794, “Synthesis and blood glucose lowering activity of some novel benzenesulfonylurea derivatives substituted with 6-aryl-4,5-dihyropyridazin-3(2H)-ones” (2012).

In assay [1] the test system is Rattus norvegicus. Briefly: Antidiabetic activity in Rattus norvegicus albino (rat) assessed as inhibition in rise of blood glucose level at 20 mg/kg, po administered 30 min prior to glucose challenge measured post 60 min of challenge by oral glucose tolerance test relative to control. Type of assay: functional.
Assay [2] concerns Rattus norvegicus. Briefly: Antidiabetic activity in overnight fastedRattus norvegicus albino (rat) assessed as reduction in blood glucose level at 20 mg/kg, po measured after 60 min by oral glucose tolerance test relative to control (reference value: 78.0 +/- 1.167 mg/dl). Type of assay: functional.

Molecules are shown by their SMILES. The source made the active and inactive calls. The rule behind the calls is not given here.

For orientation: inhibition in vivo means the drop in the measured response relative to a control, in per cent.

Turning to `O=C(NCc1ccccc1)NS(=O)(=O)c1ccc(N2N=C(c3ccc(Oc4ccccc4)cc3)CCC2=O)cc1`, the inhibition result in the assay on Rattus norvegicus [1] is “inactive”.

For `COc1ccc(C2=NN(c3ccc(S(=O)(=O)NC(=O)NCc4ccccc4)cc3)C(=O)CC2)cc1`, the inhibition in vivo at 20 mg/kg in the assay with Rattus norvegicus [1] is 41.4%.

`Cc1ccc(C2=NN(c3ccc(S(=O)(=O)NC(=O)NCc4ccccc4)cc3)C(=O)CC2)c(C)c1`: the inhibition in vivo at 20 mg/kg in the assay with Rattus norvegicus [1] was 6.5%.

On to `Cc1ccc(C2=NN(c3ccc(S(=O)(=O)NC(=O)NCc4ccccc4)cc3)C(=O)CC2)cc1`, for which the inhibition result with Rattus norvegicus [1] was “inactive”.

With `Cc1ccc(S(=O)(=O)NC(=O)NN2CC3CCCC3C2)cc1` (stereo not drawn) [GLICLAZIDE], in the assay with Rattus norvegicus [1], the inhibition in vivo at 20 mg/kg is 61.4%. Also, the Activity in the assay with Rattus norvegicus [2] stood at 58.2 mg/dL.

For `CCc1ccc(C2=NN(c3ccc(S(=O)(=O)NC(=O)NCc4ccccc4)cc3)C(=O)CC2)cc1`, the inhibition in vivo at 20 mg/kg in the assay on Rattus norvegicus [1] came to 86.9%. Further, in the assay on Rattus norvegicus [2], the Activity is 62 mg/dL.
